Measured values published in patent US20090209633A1, “Treatment of Pain With Resiniferatoxin and Related Analogs” (priority 2006, published 2009).
Values joined by “and” are separate entries in the source; they are usually repeats but may differ in a detail not shown here. Equal entries are not always repeated.

Tests used:
cloned TRPV1 = biological target: T1, cloned TRPV1 (Rattus norvegicus, UniProt O35433); experiment: Single-channel currents in excised (outside-out) patches from oocytes expressing cloned TRPV1; format: cell-based; details: for single-channel conductance / single-channel current amplitude: excised patches, cloned TRPV1; for Po: outside-out/excised patches, RTX, capsaicin 100 nM
T1 construct: expressed in transfected cells; host or cells: Xenopus laevis oocytes injected with TRPV1 cRNA
Procedure: (§1) Oocytes were obtained by an abdominal incision after anaesthetizing the frog by immersion in a 0.05% solution of 3-aminobenzoic acid ethyl ester (MS222). Animals were killed by a subcutaneous injection of a 2% solution of MS222 according to NIH guidelines. One day after separating the oocytes from the follicular layer, 50-70 nl TRPV1 cRNA was injected using a Drummond Nanoject (Drummond Scientific Co., Broomall, Pa., USA). Oocytes were used for recording from 3 days after the injection. Double-electrode voltage clamp was performed using a Warner amplifier (Warner Instruments, Hamden, Conn., USA). Data were digitized and stored on videotape or directly stored on the computer using a LabView interface (National Instruments, Austin, Tex., USA). Experiments were performed at 21-23° C. Oocytes were placed in a Perspex chamber superfused (5-10 ml min^−1) with Ca^2+-free Ringer solution containing (mM): NaCl 100, KCl 2.5 and Hepes 5; pH adjusted to 7.35 with NaOH. Current-voltage relationships were measured using 1-s voltage ramps from −80 to +80 mV.
For single-channel recording in cell-attached patches from DRG neurons, the bath solution contained (mM): potassium gluconate 140, KCl 2.5, MgCl2 1, Hepes 5 and EGTA 1.5; pH adjusted to 7.35 with NaOH. The patch pipettes were made from glass capillaries (Drummond, Microcaps), coated with Sylgard (Dow Corning, Midland, Mich., USA). For cell-attached patches, the patch pipettes were filled with a solution that contained (mM): sodium gluconate 140, NaCl 10, MgCl2 1, Hepes 5 and EGTA 1.5; pH adjusted to 7.35 with NaOH. While recording from cell-attached patches, in order to avoid differences in the driving force because of the differences in the membrane potential, the external NaCl was replaced by an equal amount of KCl in order to nullify the membrane potential. For outside-out patches, the pipette solution contained (mM): sodium gluconate 90, NaCl 10, BAPTA 10, Hepes 10, K2ATP2 and GTP 0.25; pH adjusted to 7.35 with NaOH. The bath solution contained (mM): sodium gluconate 100, KCl 2.5, MgCl2 1, Hepes 5 and EGTA 1.5; pH adjusted to 7.35 with NaOH. All the experiments were performed at room temperature (21-23° C.). Agar-bridge electrodes were used to avoid changes in junction potential. The currents were recorded using a WPC 100 (Warner Instruments) or Axopatch 2B (Axon Instruments, Union City, Calif., USA) patch-clamp amplifier. Data were filtered at 10 kHz (Axopatch 2B), digitized (VR-10B, Instrutech Corp.), and stored on videotapes. For the analysis of amplitude and open probability (Po), the data were filtered at 2.5 kHz (−3 db frequency with an 8-pole low-pass Bessel filter, Warner Instruments) and digitized at 5 kHz. For dwell-time analysis, the data were filtered at 10 kHz and digitized at 50 kHz.
Single-channel analysis. Single-channel current amplitude and Po were estimated from all-point current amplitude histograms (Channel 2 software kindly provided by Michael Smith, Australian National University, Can berra, Australia) and fitted to Gaussian densities (Origin, OriginLab Corp., Northampton, Mass., USA). For current-voltage relationships, the amplitudes were determined by fitting a Gaussian curve to an all-point histogram. Po was determined using unedited segments of data, which were typically 1-5 min long. For multiple channel patches, the mean Po was measured as nPo, where n is the number of channels in the patch. Chord conductance was measured at +60 or −60 mV. Slope conductance was determined by linear fits to current-voltage data between +20 and +100 mV or −20 and −100 mV.
Next we recorded single-channel currents from the cloned TRPV1 in excised patches. […] (Premkumar et al. 2002.)
Next we recorded single-channel currents using outside-out patches from oocytes expressing TRPV1.

rat TRPV1 = biological target: T2, rat TRPV1 (Rattus norvegicus, UniProt O35433); experiment: Whole-cell currents in Xenopus laevis oocytes expressing TRPV1 (double-electrode voltage clamp); format: cell-based; details: capsaicin 300 nM; for activation time (10-90% of the rising phase): holding −60 mV, protons pH 5.5, RTX 10 nM; for reversal potential of agonist-induced whole-cell current: ramp −80 to +80 mV in 1 s; for reversal/deactivation of current on agonist removal: −60 mV, pH 5.5, NADA 10 μM, washout >15 min for RTX
T2 construct: expressed in transfected cells; host or cells: Xenopus laevis oocytes injected with TRPV1 cRNA
Procedure: Rat TRPV1 dcRNA. Cloned rat TRPV1 was obtained from the Julius Lab at the University of California San Francisco. TRPV1 cRNA was obtained using standard techniques known to those of skill in the art.
Electrophysiology. Whole-cell and single-channel currents were recorded from rat DRG neurons in culture and from Xenopus laevis oocytes injected with rat TRPV1 cRNA. Animals were cared for according to the standards of the National Institutes of Health (NIH). All animal use protocols were approved by Southern Illinois University School of Medicine Animal Care Committee.
as §1
This example tests the activation of whole-cell currents in oocytes by RTX. Whole-cell currents were recorded from oocytes heterologously expressing TRPV1. […] Agonist-induced currents are shown after subtracting the leak current in the absence of the agonist. […] In order to quantify this, we calculated the ratio of outward and inward currents. […] PKC activation increases sensitivity as well as TRPV1 translocation. […] (Szallasi et al. 1990b; Caterina et al. 1997; Marshall et al. 2003.)

[1] = oocytes expressing TRPV1, +60 mV

T2 sequence (O35433 whole entry): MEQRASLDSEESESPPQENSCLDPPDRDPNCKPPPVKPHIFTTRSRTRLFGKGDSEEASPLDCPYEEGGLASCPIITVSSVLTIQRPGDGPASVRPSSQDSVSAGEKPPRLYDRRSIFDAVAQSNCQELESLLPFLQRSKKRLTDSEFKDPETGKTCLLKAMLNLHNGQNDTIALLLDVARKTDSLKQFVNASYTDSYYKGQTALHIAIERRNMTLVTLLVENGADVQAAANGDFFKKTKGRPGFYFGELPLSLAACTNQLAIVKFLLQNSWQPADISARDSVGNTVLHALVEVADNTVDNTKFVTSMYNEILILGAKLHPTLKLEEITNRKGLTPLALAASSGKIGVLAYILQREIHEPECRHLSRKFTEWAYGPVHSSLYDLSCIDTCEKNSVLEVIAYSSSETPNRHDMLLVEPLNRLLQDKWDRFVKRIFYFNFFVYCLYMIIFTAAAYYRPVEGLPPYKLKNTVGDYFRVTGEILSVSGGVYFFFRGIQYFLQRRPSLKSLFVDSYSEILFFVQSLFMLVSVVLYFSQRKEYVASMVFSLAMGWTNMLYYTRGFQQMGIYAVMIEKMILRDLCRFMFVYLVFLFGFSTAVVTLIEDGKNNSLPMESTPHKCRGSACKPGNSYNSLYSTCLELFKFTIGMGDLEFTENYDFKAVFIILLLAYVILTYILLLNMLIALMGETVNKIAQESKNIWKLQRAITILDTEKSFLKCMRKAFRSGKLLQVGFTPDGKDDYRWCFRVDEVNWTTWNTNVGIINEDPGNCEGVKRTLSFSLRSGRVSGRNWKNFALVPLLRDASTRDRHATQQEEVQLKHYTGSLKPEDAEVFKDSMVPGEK
T1 sequence (O35433 whole entry): as above

Row | Compound | single-channel conductance (cloned TRPV1; +60 mV) | single-channel current amplitude (cloned TRPV1; +60 mV) | Po (cloned TRPV1; +60 mV) | current amplitudes of multiple conductance states (cloned TRPV1; [1]) | single-channel conductance of multiple conductance states (cloned TRPV1; [1]) | single-channel conductance (cloned TRPV1; −60 mV) | single-channel current amplitude (cloned TRPV1; −60 mV) | Po (cloned TRPV1; −60 mV) | activation time (10-90% of the rising phase) (rat TRPV1) | reversal potential of agonist-induced whole-cell current (rat TRPV1; RTX 10 nM) | ratio of outward and inward currents (rectification) (rat TRPV1; ramp −80 to +80 mV, RTX 10 nM) | reversal/deactivation of current on agonist removal (rat TRPV1; RTX 10 nM)
1 | C=C(C)[C@]12C[C@@H](C)[C@@]34O[C@](Cc5ccccc5)(O[C@@H]1[C@@H]3C=C(COC(=O)Cc1ccc(O)c(OC)c1)C[C@]1(O)C(=O)C(C)=C[C@@H]41)O2 [RTX, resiniferatoxin] | 103.3±0.83 pS | 6.19±0.05 pA | 0.88±0.03 | 3.5 pA and 5.3 pA and 6.9 pA | 58 pS and 88 pS and 115 pS | 43±2.8 pS | 2.59±0.17 pA | 0.83±0.05 | 61.4±4.4 s | −10.4±0.53 mV | 2.35±0.97 | did not deactivate even after a prolonged washout
2 | COc1cc(CNC(=O)CCCC/C=C/C(C)C)ccc1O [capsaicin] | 95.3±1.7 pS | 5.71±0.1 pA | 0.4±0.03 | – | – | 41.8±1.3 pS | 2.52±0.08 pA | 0.14±0.01 | 23.9±1.5 s | −12.3±0.42 mV | – | could be reversed readily
